Assays:
HGC-27 = test: Antiproliferative activity against human HGC-27 cells assessed as inhibition of cell growth incubated for 72 hrs by SRB assay; type: functional, cell-based; conditions: HGC-27, 72 h
[1] = target: RAC-alpha serine/threonine-protein kinase (Homo sapiens, UniProt P31749); test: Inhibition of N-terminal GST-tagged human AKT1 (104 to 408 residues) expressed in baculovirus infected Sf21 cells incubated for 1 hr in presence of ATP by mobility shift assay
hERG (KCNH2) = hERG (KCNH2) (Homo sapiens, UniProt Q12809); test: Inhibition of human ERG expressed in HEK293 cells at 3 uM by whole cell patch clamp method relative to control; type: cell-based; conditions: HEK293 cells expressing hERG
hERG (KCNH2), sequence (Q12809 whole entry): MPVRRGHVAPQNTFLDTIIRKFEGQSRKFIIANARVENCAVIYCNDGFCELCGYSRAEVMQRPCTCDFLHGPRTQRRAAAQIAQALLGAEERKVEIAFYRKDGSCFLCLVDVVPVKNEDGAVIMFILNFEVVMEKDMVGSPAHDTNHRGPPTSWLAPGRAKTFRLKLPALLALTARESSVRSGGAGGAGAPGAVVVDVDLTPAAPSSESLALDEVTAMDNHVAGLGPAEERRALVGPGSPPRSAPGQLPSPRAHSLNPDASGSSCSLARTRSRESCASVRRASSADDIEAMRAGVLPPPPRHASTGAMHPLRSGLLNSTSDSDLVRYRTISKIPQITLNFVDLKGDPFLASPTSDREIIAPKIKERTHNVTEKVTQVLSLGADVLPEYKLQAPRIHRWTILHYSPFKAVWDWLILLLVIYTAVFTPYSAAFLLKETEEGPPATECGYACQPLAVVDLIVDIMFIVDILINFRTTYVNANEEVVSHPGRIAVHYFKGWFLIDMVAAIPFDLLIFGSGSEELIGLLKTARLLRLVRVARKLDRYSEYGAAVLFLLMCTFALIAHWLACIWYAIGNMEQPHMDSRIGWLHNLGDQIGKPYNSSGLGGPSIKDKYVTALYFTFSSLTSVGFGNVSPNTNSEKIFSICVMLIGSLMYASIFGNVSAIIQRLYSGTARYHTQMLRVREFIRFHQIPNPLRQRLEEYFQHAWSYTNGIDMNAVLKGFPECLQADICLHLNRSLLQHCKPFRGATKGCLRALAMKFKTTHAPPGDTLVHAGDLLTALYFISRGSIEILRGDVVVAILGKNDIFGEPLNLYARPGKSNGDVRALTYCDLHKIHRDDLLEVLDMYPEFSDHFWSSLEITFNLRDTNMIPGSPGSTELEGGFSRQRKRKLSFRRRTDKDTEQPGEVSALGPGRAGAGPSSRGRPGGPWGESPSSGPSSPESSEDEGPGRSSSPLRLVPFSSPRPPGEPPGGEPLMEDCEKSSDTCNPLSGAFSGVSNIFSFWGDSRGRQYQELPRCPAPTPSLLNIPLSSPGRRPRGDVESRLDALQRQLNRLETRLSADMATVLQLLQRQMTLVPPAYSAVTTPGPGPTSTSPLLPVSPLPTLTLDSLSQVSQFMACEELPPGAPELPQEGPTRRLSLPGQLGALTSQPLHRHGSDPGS

786-0 = test: Antiproliferative activity against human 786-0 cells assessed as inhibition of cell growth incubated for 72 hrs by SRB assay; type: functional, cell-based; conditions: 786-0, 72 h
KHOS/NP = test: Antiproliferative activity against human KHOS cells assessed as inhibition of cell growth incubated for 72 hrs by SRB assay; type: functional, cell-based
HaCaT = test: Antiproliferative activity against human HaCaT cells assessed as inhibition of cell growth incubated for 72 hrs by SRB assay; type: cell-based

RAC-alpha serine/threonine-protein kinase, sequence (P31749 whole entry, the tested form may be a part): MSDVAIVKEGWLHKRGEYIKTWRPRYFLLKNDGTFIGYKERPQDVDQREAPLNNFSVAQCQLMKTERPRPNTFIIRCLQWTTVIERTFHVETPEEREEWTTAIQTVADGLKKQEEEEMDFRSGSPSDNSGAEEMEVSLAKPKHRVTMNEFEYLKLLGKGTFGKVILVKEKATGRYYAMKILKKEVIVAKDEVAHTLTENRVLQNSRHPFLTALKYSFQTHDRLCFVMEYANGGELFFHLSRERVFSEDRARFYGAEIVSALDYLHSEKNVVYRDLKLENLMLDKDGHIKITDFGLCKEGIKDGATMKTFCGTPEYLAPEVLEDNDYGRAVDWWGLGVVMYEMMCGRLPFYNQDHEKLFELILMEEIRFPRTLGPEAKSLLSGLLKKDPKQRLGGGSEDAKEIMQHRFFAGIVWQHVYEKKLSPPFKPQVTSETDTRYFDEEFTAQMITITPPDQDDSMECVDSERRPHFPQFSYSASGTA

Structure (SMILES) | IC50 [1] [µM] | IC50 (786-0) [µM] | IC50 (HGC-27) [µM] | inhibition at 3 µM (hERG (KCNH2)) [%] | IC50 (KHOS/NP) [µM] | IC50 (HaCaT) [µM]
Cn1nccc1-c1ccc(C(=O)N[C@@H]2CNCC[C@H]2c2ccc(F)c(F)c2)cc1 | – | – | – | – | – | 5.44
Cn1ncc(Br)c1-c1cc(F)c(C(=O)N[C@@H]2CNCC[C@H]2c2ccc(F)c(F)c2)c(F)c1 | 0.0957 | 3.56 | 2.9 | – | 5.01 | –
Cn1nccc1-c1ccc(C(=O)N[C@@H]2CNCC[C@H]2c2cc(F)cc(F)c2)c(Cl)c1 | 0.015 | 3.79 | 1.24 | – | 11.8 | –
Cn1ncc(Cl)c1-c1cc(F)c(C(=O)N[C@@H]2CNCC[C@H]2c2ccc(F)c(F)c2)cc1F | 0.0489 | – | – | – | – | –
Cn1nccc1-c1cc(F)c(C(=O)N[C@@H]2CNCC[C@H]2c2ccc(F)c(F)c2)c(F)c1 | 0.0263 | 7.99 | 4.59 | – | 15.4 | –
Cn1ncc(Cl)c1-c1cc(F)c(C(=O)N[C@@H]2CNCC[C@H]2c2ccc(F)c(F)c2)c(F)c1 | 0.0971 | 4.28 | 4.86 | – | 4.46 | –

More lines, main results first:

IC50 [1] [µM] | IC50 (786-0) [µM] | Structure (SMILES) | IC50 (HGC-27) [µM] | inhibition at 3 µM (hERG (KCNH2)) [%] | IC50 (KHOS/NP) [µM] | IC50 (HaCaT) [µM]
0.0046 | 2.22 | Cn1nccc1-c1ccc(C(=O)N[C@@H]2CNCC[C@H]2c2cc(F)cc(F)c2)c(F)c1 | 0.51 | 6.4 | 17.1 | –
0.176 | 5.2 | CCn1nccc1-c1ccc(C(=O)N[C@@H]2CNCC[C@H]2c2ccc(F)c(F)c2)c(F)c1 | 3.57 | – | 5.46 | –
0.107 | 25.5 | Cn1nccc1-c1cc(F)c(C(=O)N[C@@H]2CNCC[C@H]2c2ccc(F)cc2)c(F)c1 | 7.27 | – | 29.1 | –
0.0027 | 0.95 | Cn1nccc1-c1ccc(C(=O)N[C@@H]2CNCC[C@H]2c2ccc(F)c(F)c2)cc1F | 0.18 | 10.7 | 7.43 | –
